Reference: ChEMBL document CHEMBL3774309, “SAR Exploration Guided by LE and Fsp(3): Discovery of a Selective and Orally Efficacious RORγ Inhibitor” (ACS Med Chem Lett, 2016)
One block for each compound: values may come before it.

Columns and labels:
[1] = target: T1, Nuclear receptor ROR-gamma (Mus musculus, UniProt P51450); experiment: Inhibition of mouse RORgamma ligand binding domain (Isoleucine 251 to Lysine 516) expressed in CHOK1 cells incubated for 2 days by Gal4 luciferase reporter gene assay; format: cell-based, CHO-K1
T1 sequence (P51450 whole entry): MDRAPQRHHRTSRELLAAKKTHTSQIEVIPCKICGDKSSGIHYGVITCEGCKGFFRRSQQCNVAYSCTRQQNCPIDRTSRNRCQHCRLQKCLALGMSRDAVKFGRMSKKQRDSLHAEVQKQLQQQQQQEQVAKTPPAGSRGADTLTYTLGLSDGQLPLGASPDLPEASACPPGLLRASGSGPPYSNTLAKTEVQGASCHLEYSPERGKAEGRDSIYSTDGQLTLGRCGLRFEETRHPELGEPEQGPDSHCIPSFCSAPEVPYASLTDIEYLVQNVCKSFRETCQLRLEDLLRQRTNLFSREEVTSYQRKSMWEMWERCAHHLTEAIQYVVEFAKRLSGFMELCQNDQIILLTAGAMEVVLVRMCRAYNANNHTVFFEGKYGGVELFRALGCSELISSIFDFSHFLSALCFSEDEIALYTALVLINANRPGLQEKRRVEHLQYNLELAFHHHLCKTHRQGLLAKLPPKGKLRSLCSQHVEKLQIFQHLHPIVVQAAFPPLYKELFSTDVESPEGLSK

[2] = Metabolic stability in liver S9 fraction (unknown origin) assessed as parent compound remaining incubated for 10 mins; format: ADME, subcellular; settings: human, read-out: Stability
[3] = Metabolic stability in liver S9 fraction (unknown origin) assessed as parent compound remaining incubated for 60 mins; format: ADME, subcellular; settings: human, read-out: Stability
[4] = target: T2, Nuclear receptor ROR-gamma (Homo sapiens, UniProt P51449)
T2 sequence (P51449 whole entry): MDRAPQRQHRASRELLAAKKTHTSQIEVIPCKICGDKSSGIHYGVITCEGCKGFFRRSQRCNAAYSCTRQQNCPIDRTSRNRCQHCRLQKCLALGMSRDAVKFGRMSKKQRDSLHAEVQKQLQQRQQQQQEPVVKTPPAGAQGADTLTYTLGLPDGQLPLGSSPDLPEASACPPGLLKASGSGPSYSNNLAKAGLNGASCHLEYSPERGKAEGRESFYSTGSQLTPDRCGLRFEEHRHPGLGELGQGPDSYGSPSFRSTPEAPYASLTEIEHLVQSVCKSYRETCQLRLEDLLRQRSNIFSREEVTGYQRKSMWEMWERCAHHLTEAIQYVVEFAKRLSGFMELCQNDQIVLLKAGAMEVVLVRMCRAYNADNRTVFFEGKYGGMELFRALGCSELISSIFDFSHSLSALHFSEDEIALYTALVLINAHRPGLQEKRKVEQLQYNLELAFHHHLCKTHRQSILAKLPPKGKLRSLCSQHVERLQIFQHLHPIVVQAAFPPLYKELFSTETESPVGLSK
Description: Inhibition of human RORgamma ligand binding domain (Serine 253 to Lysine 518 residues) expressed in CHOK1 cells incubated for 2 days by Gal4 luciferase reporter gene assay

[5] = target: T2, Nuclear receptor ROR-gamma; experiment: Inhibition of human GST-tagged RORgamma ligand binding domain (253 to 518 residues) expressed in sf9 cells using biotin-EEPSLLKKLLLAPA by FRET assay
[6] = Metabolic stability in human liver microsomes assessed as parent compound remaining incubated for 10 mins; format: ADME; settings: read-out: Stability
Cytochrome P450 3A4 [7] = target: T3, Cytochrome P450 3A4 (Homo sapiens, UniProt P08684); experiment: Inhibition of human CYP3A4
Cytochrome P450 3A4 [8] = target: T3, Cytochrome P450 3A4; experiment: Inhibition of CYP3A4 in human liver microsomes using midazolam as substrate preincubated with substrate for 5 mins followed by NADPH addition measured after 20 mins by HPLC analysis; format: ADME
Cytochrome P450 2C9 = Cytochrome P450 2C9 (Homo sapiens, UniProt P11712); experiment: Inhibition of CYP2C9 in human liver microsomes using diclofenac as substrate preincubated with substrate for 5 mins followed by NADPH addition measured after 20 mins by HPLC analysis; format: ADME
Cytochrome P450 2D6 = Cytochrome P450 2D6 (Homo sapiens, UniProt P10635); experiment: Inhibition of CYP2D6 in human liver microsomes using bufuralol as substrate preincubated with substrate for 5 mins followed by NADPH addition measured after 20 mins by HPLC analysis; format: ADME
Cytochrome P450 1A2 = Cytochrome P450 1A2 (Homo sapiens, UniProt P05177); experiment: Inhibition of CYP1A2 in human liver microsomes using ethoxyresorufin as substrate preincubated with substrate for 5 mins followed by NADPH addition measured after 20 mins by HPLC analysis; format: ADME
Cytochrome P450 2A6 = Cytochrome P450 2A6 (Homo sapiens, UniProt P11509); experiment: Inhibition of CYP2A6 in human liver microsomes using coumarin as substrate preincubated with substrate for 5 mins followed by NADPH addition measured after 20 mins by HPLC analysis; format: ADME
Cytochrome P450 2C19 = Cytochrome P450 2C19 (Homo sapiens, UniProt P33261); experiment: Inhibition of CYP2C19 in human liver microsomes using S-mephenytoin as substrate preincubated with substrate for 5 mins followed by NADPH addition measured after 20 mins by HPLC analysis; format: ADME
[9] = target: Nuclear receptor ROR-alpha (Homo sapiens, UniProt P35398); experiment: Inhibition of human RORalpha
Steroidogenic factor 1 = Steroidogenic factor 1 (Homo sapiens, UniProt Q13285); experiment: Inhibition of human SF-1 receptor
[10] = target: Nuclear receptor ROR-beta (Homo sapiens, UniProt Q92753); experiment: Inhibition of human RORbeta
Glucocorticoid receptor = Glucocorticoid receptor (Mus musculus, UniProt P06537); experiment: Inhibition of mouse GR
[11] = target: Retinoic acid receptor RXR-alpha (Homo sapiens, UniProt P19793); experiment: Inhibition of human RXRalpha
Vitamin D3 receptor = Vitamin D3 receptor (Homo sapiens, UniProt P11473); experiment: Inhibition of human VDR
Bile acid receptor = Bile acid receptor (Homo sapiens, UniProt Q96RI1); experiment: Inhibition of human FXR
[12] = target: Oxysterols receptor LXR-alpha (Mus musculus, UniProt Q9Z0Y9); experiment: Inhibition of mouse LXRalpha
[13] = target: Peroxisome proliferator-activated receptor alpha (Homo sapiens, UniProt Q07869); experiment: Inhibition of human PPARalpha
[14] = target: Peroxisome proliferator-activated receptor gamma (Homo sapiens, UniProt P37231); experiment: Inhibition of human PPARgamma
[15] = target: Peroxisome proliferator-activated receptor delta (Homo sapiens, UniProt Q03181); experiment: Inhibition of human PPARdelta
Progesterone receptor = Progesterone receptor (Homo sapiens, UniProt P06401); experiment: Inhibition of human PR
[16] = target: Retinoic acid receptor alpha (Homo sapiens, UniProt P10276); experiment: Inhibition of human RARalpha
[17] = target: Retinoic acid receptor beta (Homo sapiens, UniProt P10826); experiment: Inhibition of human RARbeta
Mus musculus = experiment: Inhibition of MOG/PTX/CD3 antibody-induced IL-17 production in po dosed C57BL/6 mouse plasma adminstered 3 to 8 hrs before CD3 antibody injection by ELISA; format: functional, organism-based

T3 sequence (P08684 whole entry): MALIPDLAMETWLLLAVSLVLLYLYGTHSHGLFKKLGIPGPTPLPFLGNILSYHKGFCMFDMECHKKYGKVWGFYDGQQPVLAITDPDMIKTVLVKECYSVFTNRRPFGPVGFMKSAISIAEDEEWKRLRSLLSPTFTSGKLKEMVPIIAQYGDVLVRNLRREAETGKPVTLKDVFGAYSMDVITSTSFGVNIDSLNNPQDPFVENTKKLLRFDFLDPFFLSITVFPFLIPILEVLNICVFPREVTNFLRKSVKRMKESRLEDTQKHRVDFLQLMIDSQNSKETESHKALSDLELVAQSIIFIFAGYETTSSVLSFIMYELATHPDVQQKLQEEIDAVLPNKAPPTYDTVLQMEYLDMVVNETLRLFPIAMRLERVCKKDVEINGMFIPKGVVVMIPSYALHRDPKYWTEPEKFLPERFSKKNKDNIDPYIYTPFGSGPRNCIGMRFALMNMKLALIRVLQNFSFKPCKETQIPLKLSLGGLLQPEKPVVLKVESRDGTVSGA
Sequence of Retinoic acid receptor beta (P10826 whole entry): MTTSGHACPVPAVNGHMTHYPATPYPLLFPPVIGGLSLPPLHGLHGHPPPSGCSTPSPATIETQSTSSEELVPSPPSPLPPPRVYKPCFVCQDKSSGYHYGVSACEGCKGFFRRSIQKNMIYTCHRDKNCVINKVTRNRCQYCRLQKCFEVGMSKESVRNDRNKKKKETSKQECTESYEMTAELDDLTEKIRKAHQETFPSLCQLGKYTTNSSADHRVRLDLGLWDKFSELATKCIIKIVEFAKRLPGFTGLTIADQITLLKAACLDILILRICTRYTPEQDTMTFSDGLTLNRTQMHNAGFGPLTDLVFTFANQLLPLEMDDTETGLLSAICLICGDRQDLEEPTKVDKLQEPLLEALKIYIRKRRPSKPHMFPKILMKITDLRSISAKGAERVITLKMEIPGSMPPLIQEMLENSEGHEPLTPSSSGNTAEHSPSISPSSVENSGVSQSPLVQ
Sequence of Cytochrome P450 1A2 (P05177 whole entry): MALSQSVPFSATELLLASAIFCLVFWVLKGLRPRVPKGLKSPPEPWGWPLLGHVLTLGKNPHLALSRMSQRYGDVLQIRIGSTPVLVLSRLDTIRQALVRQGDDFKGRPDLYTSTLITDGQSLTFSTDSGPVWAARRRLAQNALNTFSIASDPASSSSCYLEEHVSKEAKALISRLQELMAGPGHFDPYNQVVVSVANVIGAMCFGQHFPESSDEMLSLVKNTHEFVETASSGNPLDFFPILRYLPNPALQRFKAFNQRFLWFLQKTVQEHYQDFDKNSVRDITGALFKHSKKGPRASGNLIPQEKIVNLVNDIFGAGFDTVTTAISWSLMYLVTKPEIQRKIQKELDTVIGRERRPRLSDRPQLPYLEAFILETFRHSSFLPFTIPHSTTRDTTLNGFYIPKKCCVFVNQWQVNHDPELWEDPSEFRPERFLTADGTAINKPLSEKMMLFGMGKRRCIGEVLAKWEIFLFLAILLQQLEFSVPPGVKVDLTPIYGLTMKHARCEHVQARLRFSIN
Sequence of Glucocorticoid receptor (P06537 whole entry): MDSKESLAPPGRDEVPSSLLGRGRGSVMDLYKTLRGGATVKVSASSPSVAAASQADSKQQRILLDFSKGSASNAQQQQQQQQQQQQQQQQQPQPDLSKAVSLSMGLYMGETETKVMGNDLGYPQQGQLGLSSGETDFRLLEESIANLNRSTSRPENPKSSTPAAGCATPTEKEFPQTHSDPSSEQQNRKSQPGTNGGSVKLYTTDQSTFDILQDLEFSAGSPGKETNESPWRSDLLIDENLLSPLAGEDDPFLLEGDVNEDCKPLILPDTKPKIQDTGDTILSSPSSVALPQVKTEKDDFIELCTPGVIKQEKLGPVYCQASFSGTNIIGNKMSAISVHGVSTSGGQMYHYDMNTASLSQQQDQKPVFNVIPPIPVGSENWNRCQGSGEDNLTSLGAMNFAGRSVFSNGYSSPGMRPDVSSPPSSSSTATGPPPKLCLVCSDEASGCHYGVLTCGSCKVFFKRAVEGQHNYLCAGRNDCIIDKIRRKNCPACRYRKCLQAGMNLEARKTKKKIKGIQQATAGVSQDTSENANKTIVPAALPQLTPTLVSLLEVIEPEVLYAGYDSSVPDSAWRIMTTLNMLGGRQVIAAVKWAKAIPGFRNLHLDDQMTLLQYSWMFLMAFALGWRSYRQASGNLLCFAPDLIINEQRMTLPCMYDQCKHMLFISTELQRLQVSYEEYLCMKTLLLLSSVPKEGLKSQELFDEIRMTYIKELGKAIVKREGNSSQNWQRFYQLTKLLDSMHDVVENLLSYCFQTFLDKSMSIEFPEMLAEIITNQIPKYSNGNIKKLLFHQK
Sequence of Cytochrome P450 2D6 (P10635 whole entry): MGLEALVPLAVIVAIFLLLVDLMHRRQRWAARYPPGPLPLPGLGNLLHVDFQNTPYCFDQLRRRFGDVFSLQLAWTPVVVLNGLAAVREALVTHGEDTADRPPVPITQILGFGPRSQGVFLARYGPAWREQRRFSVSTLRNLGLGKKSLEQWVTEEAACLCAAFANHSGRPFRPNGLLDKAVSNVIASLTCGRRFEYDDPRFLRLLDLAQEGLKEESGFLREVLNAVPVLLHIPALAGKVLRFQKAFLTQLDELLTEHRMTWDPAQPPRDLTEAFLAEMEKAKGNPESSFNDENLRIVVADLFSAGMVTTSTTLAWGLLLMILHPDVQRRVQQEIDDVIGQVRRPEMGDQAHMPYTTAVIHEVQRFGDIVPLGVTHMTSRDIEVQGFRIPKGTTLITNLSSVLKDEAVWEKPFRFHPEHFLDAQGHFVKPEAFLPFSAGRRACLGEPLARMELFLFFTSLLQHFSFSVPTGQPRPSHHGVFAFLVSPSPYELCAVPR
Sequence of Cytochrome P450 2A6 (P11509 whole entry): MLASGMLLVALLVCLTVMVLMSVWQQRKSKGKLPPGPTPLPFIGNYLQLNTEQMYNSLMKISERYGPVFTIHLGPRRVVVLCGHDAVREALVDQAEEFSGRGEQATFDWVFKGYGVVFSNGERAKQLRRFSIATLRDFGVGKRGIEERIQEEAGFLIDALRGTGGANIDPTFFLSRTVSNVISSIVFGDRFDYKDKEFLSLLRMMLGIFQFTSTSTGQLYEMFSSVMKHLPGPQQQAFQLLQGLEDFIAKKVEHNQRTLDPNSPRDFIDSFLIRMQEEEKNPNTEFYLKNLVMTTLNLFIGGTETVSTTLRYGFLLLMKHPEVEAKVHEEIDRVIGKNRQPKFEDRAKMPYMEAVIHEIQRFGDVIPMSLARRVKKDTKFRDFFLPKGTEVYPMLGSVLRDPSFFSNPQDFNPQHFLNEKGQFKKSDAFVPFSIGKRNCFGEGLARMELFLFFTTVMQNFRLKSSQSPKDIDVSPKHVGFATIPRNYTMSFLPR
Sequence of Cytochrome P450 2C19 (P33261 whole entry): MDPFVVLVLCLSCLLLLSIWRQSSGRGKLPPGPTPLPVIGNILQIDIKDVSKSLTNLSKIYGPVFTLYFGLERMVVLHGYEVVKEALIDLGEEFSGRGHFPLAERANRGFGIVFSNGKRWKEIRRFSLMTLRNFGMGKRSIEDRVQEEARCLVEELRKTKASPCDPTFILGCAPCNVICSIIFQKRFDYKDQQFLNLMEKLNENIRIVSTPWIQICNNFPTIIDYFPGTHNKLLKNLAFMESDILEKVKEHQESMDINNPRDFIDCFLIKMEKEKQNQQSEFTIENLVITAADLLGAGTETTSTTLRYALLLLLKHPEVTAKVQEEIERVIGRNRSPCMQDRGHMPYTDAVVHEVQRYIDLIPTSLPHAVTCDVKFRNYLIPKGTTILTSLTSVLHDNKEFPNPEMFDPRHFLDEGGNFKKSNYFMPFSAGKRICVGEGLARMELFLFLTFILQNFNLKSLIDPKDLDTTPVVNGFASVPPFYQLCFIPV
Sequence of Peroxisome proliferator-activated receptor delta (Q03181 whole entry): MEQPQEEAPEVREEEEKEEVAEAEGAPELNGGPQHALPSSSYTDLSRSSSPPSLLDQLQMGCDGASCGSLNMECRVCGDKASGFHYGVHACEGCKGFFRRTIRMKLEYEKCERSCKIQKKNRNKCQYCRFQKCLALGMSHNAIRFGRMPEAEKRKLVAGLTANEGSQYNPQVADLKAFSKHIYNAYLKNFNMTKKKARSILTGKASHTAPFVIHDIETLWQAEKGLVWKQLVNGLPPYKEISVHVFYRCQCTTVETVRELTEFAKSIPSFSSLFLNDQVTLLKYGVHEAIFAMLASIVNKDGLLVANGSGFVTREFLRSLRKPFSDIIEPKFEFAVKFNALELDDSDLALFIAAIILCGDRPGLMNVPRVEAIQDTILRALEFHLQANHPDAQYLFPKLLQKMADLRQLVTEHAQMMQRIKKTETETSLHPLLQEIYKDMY
Sequence of Bile acid receptor (Q96RI1 whole entry): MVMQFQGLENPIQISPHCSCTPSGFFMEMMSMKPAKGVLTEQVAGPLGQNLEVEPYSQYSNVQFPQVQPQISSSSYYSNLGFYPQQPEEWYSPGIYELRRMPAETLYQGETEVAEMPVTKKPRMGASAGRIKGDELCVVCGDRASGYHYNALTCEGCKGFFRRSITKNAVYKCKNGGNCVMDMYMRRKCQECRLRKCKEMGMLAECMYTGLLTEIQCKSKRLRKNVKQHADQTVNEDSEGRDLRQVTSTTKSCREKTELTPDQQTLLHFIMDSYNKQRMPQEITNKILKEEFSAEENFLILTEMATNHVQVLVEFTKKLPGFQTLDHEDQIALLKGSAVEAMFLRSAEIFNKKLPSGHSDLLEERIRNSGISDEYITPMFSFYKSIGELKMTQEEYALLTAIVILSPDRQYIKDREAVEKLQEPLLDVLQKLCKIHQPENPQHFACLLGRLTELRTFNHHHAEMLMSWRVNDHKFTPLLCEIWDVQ

- EC50 [1]: 1300 nM
- remaining at 10 min [2]: 71%
- remaining at 1 h [3]: 51%
- EC50 [4]: 2800 nM
Compound: Cc1ccc(NC(=O)CCc2nnc(CCCC(C)(C)C)n2C2CC2)c(C)c1

- EC50 [1]: 4500 nM
- EC50 [4]: > 20000 nM
Compound: CCn1c(CCC(=O)Nc2cccc3ccccc23)nnc1C1CCCCC1

- EC50 [1]: 300 nM
- EC50 [4]: 820 nM
Compound: CCn1c(CCC(=O)Nc2cccc3ccccc23)nnc1CCC1CCCCC1

- EC50 [1]: > 20000 nM
- EC50 [4]: > 20000 nM
Compound: CCn1c(OCC(=O)Nc2cccc3ccccc23)nnc1C1Cc2ccccc2C1

- EC50 [1]: 630 nM
- EC50 [4]: 2500 nM
Compound: CCn1c(CCC(=O)Nc2cccc3ccccc23)nnc1CCc1ccccc1

- EC50 [1]: 640 nM
- EC50 [4]: 960 nM
Compound: CCn1c(CCC(=O)Nc2cccc(Cl)c2C)nnc1CCC1CCCCC1

- EC50 [1]: > 20000 nM
- EC50 [4]: > 20000 nM
Compound: CCn1c(C(O)CC(=O)Nc2cccc3ccccc23)nnc1C1Cc2ccccc2C1 (racemic)

- EC50 [1]: 400 nM
- EC50 [4]: 1000 nM
Compound: CCn1c(CCC(=O)Nc2cccc3ccccc23)nnc1C1Cc2ccccc2C1

- EC50 [1]: 3100 nM
- EC50 [4]: 2900 nM
Compound: CCn1c(CCC(=O)Nc2cc(C)cc(C)c2)nnc1CCC1CCCCC1

- EC50 [1]: 1100 nM
- EC50 [4]: 1700 nM
Compound: CCn1c(C(C)CC(=O)Nc2cccc3ccccc23)nnc1C1Cc2ccccc2C1 (racemic)

- EC50 [1]: 700 nM
- EC50 [5]: 850 nM
- remaining at 10 min [6]: 18%
- IC50 (Cytochrome P450 3A4 [7]): 4 µM
- EC50 [4]: 1700 nM
Compound: CCn1c(SCC(=O)Nc2cccc3ccccc23)nnc1C1Cc2ccccc2C1

- EC50 [1]: 53 nM
- remaining at 10 min [2]: 68%
- remaining at 1 h [3]: 31%
- EC50 [4]: 400 nM
Compound: Cc1ccc(NC(=O)CCc2nnc([C@H]3C[C@H](CC(C)C)C3)n2C2CC2)c(C)c1

- EC50 [1]: 450 nM
- remaining at 10 min [2]: 55%
- remaining at 1 h [3]: 23%
- EC50 [4]: 980 nM
Compound: Cc1ccc(NC(=O)CCc2nnc(CCC3CCCCC3)n2C2CC2)c(C)c1

- EC50 [1]: 54 nM
- remaining at 10 min [2]: 83%
- remaining at 1 h [3]: 31%
- EC50 [4]: 450 nM
Compound: Cc1ccc(NC(=O)CCc2nnc(-c3cc(CC(C)C)on3)n2C2CC2)c(C)c1

- EC50 [1]: 120 nM
- remaining at 10 min [2]: 84%
- remaining at 1 h [3]: 55%
- EC50 [4]: 1800 nM
Compound: Cc1ccc(NC(=O)CCc2nnc(-c3ccc(CC(C)C)cc3)n2C2CC2)c(C)c1

- EC50 [1]: 35 nM
- remaining at 10 min [2]: 70%
- remaining at 1 h [3]: 39%
- IC50 (Cytochrome P450 3A4 [8]): 5 µM
- EC50 [4]: 140 nM
Compound: Cc1ccc(NC(=O)CCc2nnc([C@H]3C[C@@H](CC(C)C)C3)n2C2CC2)c(C)c1

- EC50 [1]: 610 nM
- remaining at 10 min [2]: 67%
- remaining at 1 h [3]: 27%
- EC50 [4]: 1700 nM
Compound: Cc1ccc(NC(=O)CCc2nnc(CCCC(C)C)n2C2CC2)c(C)c1

- EC50 [1]: 600 nM
- remaining at 10 min [2]: 36%
- remaining at 1 h [3]: 0%
- remaining at 10 min [6]: 36%
- EC50 [4]: 900 nM
Compound: CCn1c(CCC(=O)Nc2ccc(C)cc2C)nnc1CCC1CCCCC1

- EC50 [1]: 1400 nM
- EC50 [4]: 13000 nM
Compound: CCn1c(CCC(=O)Nc2cccc3ccccc23)nnc1CCC(C)C

- EC50 [1]: 1800 nM
- remaining at 10 min [2]: 49%
- remaining at 1 h [3]: 27%
- EC50 [4]: 9500 nM
Compound: Cc1ccc(NC(=O)CCc2nnc(CCC3CCCCC3)n2C2CCC2)c(C)c1

- EC50 [1]: 1400 nM
- remaining at 10 min [2]: 63%
- remaining at 1 h [3]: 27%
- EC50 [4]: 3900 nM
Compound: CCC(C)CCc1nnc(CCC(=O)Nc2ccc(C)cc2C)n1C1CC1 (racemic)

- EC50 [1]: 830 nM
- EC50 [4]: 6700 nM
Compound: CCn1c(CCC(=O)Nc2cccc3ccccc23)nnc1CCC(C)(C)C

- EC50 [1]: 290 nM
- remaining at 10 min [2]: 53%
- remaining at 1 h [3]: 21%
- EC50 [4]: 230 nM
Compound: Cc1ccc(NC(=O)[C@H]2CN(C)CC[C@@H]2c2nnc([C@H]3C[C@@H](CC(C)C)C3)n2C2CC2)c(C)c1 (racemic)

- EC50 [1]: 2600 nM
- EC50 [4]: 14000 nM
Compound: CCn1c(CCC(=O)Nc2cccc3ccccc23)nnc1CC1CCCCC1

- remaining at 10 min [2]: 86%
- remaining at 1 h [3]: 61%
- IC50 (Cytochrome P450 3A4 [8]): > 50 µM
- inhibition (INH) (Cytochrome P450 3A4 [8]; human, microsomes, 20 min, TDE = time-dependent effect): tde
- IC50 (Cytochrome P450 2C9): > 50 µM
- IC50 (Cytochrome P450 2D6): > 50 µM
- IC50 (Cytochrome P450 1A2): > 50 µM
- IC50 (Cytochrome P450 2A6): > 50 µM
- IC50 (Cytochrome P450 2C19): > 50 µM
- EC50 [9]: > 20 µM
- EC50 (Steroidogenic factor 1): > 20 µM
- EC50 [10]: > 20 µM
- EC50 (Glucocorticoid receptor): > 20 µM
- EC50 [11]: > 20 µM
- EC50 (Vitamin D3 receptor): > 20 µM
- EC50 (Bile acid receptor): > 20 µM
- EC50 [12]: > 20 µM
- EC50 [13]: > 20 µM
- EC50 [14]: > 20 µM
- EC50 [15]: > 20 µM
- EC50 (Progesterone receptor): > 20 µM
- EC50 [16]: > 20 µM
- EC50 [17]: > 20 µM
Compound: CC(=O)N1C[C@H](C(=O)Nc2ccc(C)cc2C)[C@@H](c2nnc([C@H]3C[C@@H](CC(C)C)C3)n2C2CC2)C1
- inhibition (Mus musculus): Dose-dependent effect

- EC50 [1]: 500 nM
- remaining at 10 min [2]: 75%
- remaining at 1 h [3]: 59%
- EC50 [4]: 920 nM
Compound: Cc1ccc(NC(=O)CCc2nnc(CCC3CCCCC3)n2C2CC2(F)F)c(C)c1 (stereo not given)

- EC50 [1]: 670 nM
- EC50 [4]: 1300 nM
Compound: CCn1c(CC(C)C(=O)Nc2cccc3ccccc23)nnc1C1Cc2ccccc2C1 (racemic)

- EC50 [1]: 38 nM
- remaining at 10 min [2]: 87%
- remaining at 1 h [3]: 76%
- IC50 (Cytochrome P450 3A4 [8]): 3 µM
- EC50 [4]: 98 nM
Compound: Cc1ccc(NC(=O)[C@H]2C[C@@H](O)C[C@@H]2c2nnc([C@H]3C[C@@H](CC(C)C)C3)n2C2CC2)c(C)c1
